Results taken from US12077503B2, “Substituted cyclic amides and their use as herbicides” (FMC CORPORATION, priority 2015, dated 2024).
Like-named read-outs stand apart in the source and are kept apart here.

How the values were obtained:
Type in all cases: in vivo
[1] = tested on: Kochia (Kochia scoparia); test: Test A preemergence; conditions: Bassia scoparia, pre-emergence, 240 h; for pest or weed control at 125 g/ha: 125 g ai/ha; for pest or weed control at 500 g/ha: 500 g ai/ha
Method in brief: (§1)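 Preemergence directed soil spray on seeded pots, or postemergence application to plants 2–10 cm, one- to two-leaf. Solvent mixture non-phytotoxic, with surfactant. Scored ~10 d later, visually, 0–100 vs untreated.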

[2] = tested on: barnyardgrass (Echinochloa crus-galli); test: Test A preemergence; conditions: Echinochloa crus-galli, pre-emergence, 240 h; for pest or weed control at 125 g/ha: 125 g ai/ha; for pest or weed control at 500 g/ha: 500 g ai/ha
Method in brief: as §1

[3] = tested on: giant foxtail (Setaria faberii); test: Test A preemergence; conditions: Setaria faberi, pre-emergence, 240 h; for pest or weed control at 125 g/ha: 125 g ai/ha; for pest or weed control at 500 g/ha: 500 g ai/ha
Method in brief: as §1

[4] = tested on: pigweed (Amaranthus retroflexus); test: Test A preemergence; conditions: Amaranthus retroflexus, pre-emergence, 240 h; for pest or weed control at 125 g/ha: 125 g ai/ha; for pest or weed control at 500 g/ha: 500 g ai/ha
[5] = tested on: ragweed (common ragweed, Ambrosia elatior); test: Test A preemergence; conditions: Ambrosia artemisiifolia, pre-emergence, 240 h; for pest or weed control at 125 g/ha: 125 g ai/ha; for pest or weed control at 500 g/ha: 500 g ai/ha
Method in brief: as §1

[6] = tested on: ryegrass, Italian (Italian ryegrass, Lolium multiflorum); test: Test A preemergence; conditions: Lolium multiflorum, pre-emergence, 240 h; for pest or weed control at 125 g/ha: 125 g ai/ha; for pest or weed control at 500 g/ha: 500 g ai/ha
Method in brief: as §1

[7] = tested on: Kochia (Kochia scoparia); test: Test A postemergence; conditions: Bassia scoparia, post-emergence, 240 h; for pest or weed control at 125 g/ha: 125 g ai/ha; for pest or weed control at 500 g/ha: 500 g ai/ha
Method in brief: as §1

[8] = tested on: barnyardgrass (Echinochloa crus-galli); test: Test A postemergence; conditions: Echinochloa crus-galli, post-emergence, 240 h; for pest or weed control at 125 g/ha: 125 g ai/ha; for pest or weed control at 500 g/ha: 500 g ai/ha
Method in brief: as §1

[9] = tested on: blackgrass (Alopecurus myosuroides); test: Test A postemergence; conditions: Alopecurus myosuroides, post-emergence, 240 h; for pest or weed control at 125 g/ha: 125 g ai/ha; for pest or weed control at 500 g/ha: 500 g ai/ha
Method in brief: as §1

[10] = tested on: pigweed (Amaranthus retroflexus); test: Test A postemergence; conditions: Amaranthus retroflexus, post-emergence, 240 h; for pest or weed control at 125 g/ha: 125 g ai/ha; for pest or weed control at 500 g/ha: 500 g ai/ha
Method in brief: as §1

[11] = tested on: barnyardgrass (Echinochloa crus-galli); test: Test B flooded paddy test; conditions: 250 g ai/ha, Flood, 0 to 100 scale where 0 is no effect and 100 is complete control
Method in brief: (§2)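 2-leaf plants; pots flooded 3 cm over soil; cpd added to paddy water; depth held; greenhouse 13–15 d; visual rating vs controls, 0 = no effect, 100 = complete control.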

[12] = tested on: ducksalad (Heteranthera limosa); test: Test B flooded paddy test; conditions: 250 g ai/ha, Flood, 0 to 100 scale where 0 is no effect and 100 is complete control
Method in brief: as §2

[13] = tested on: rice (Oryra sativa); test: Test B flooded paddy test; conditions: 250 g ai/ha, Flood, 0 to 100 scale where 0 is no effect and 100 is complete control
Method in brief: as §2

[14] = tested on: sedge, umbrella (small-flower umbrella sedge, Cyperus difformis); test: Test B flooded paddy test; conditions: 250 g ai/ha, Flood, 0 to 100 scale where 0 is no effect and 100 is complete control
Method in brief: as §2

O=C1NC[C@H](c2ccc(F)c(OC(F)(F)C(F)F)c2)[C@H]1C(=O)Nc1ccc(F)cc1F (racemic) [Compound 1154]
pest or weed control at 125 g/ha ([1]; preemergence, 0 to 100 scale where 0 is no effect and 100 is complete control, approx. 10 d, read-out: Kochia plant response rating): 70%
pest or weed control at 500 g/ha ([1]; preemergence, 0 to 100 scale where 0 is no effect and 100 is complete control, read-out: Kochia plant response rating): 90%
pest or weed control at 125 g/ha ([2]; preemergence, 0 to 100 scale where 0 is no effect and 100 is complete control, approx. 10 d, read-out: Barnyardgrass plant response rating): 90%
pest or weed control at 500 g/ha ([2]; preemergence, 0 to 100 scale where 0 is no effect and 100 is complete control, read-out: Barnyardgrass plant response rating): 90%
pest or weed control at 125 g/ha ([3]; preemergence, 0 to 100 scale where 0 is no effect and 100 is complete control, approx. 10 d, read-out: Foxtail, Giant plant response rating): 90%
pest or weed control at 500 g/ha ([3]; preemergence, 0 to 100 scale where 0 is no effect and 100 is complete control, read-out: Foxtail, Giant plant response rating): 90%
pest or weed control at 125 g/ha ([4]; preemergence, 0 to 100 scale where 0 is no effect and 100 is complete control, approx. 10 d, read-out: Pigweed plant response rating): 60%
pest or weed control at 500 g/ha ([4]; preemergence, 0 to 100 scale where 0 is no effect and 100 is complete control, read-out: Pigweed plant response rating): 80%
pest or weed control at 125 g/ha ([5]; preemergence, 0 to 100 scale where 0 is no effect and 100 is complete control, approx. 10 d, read-out: Ragweed plant response rating): 20%
pest or weed control at 500 g/ha ([5]; preemergence, 0 to 100 scale where 0 is no effect and 100 is complete control, read-out: Ragweed plant response rating): 90%
pest or weed control at 125 g/ha ([6]; preemergence, 0 to 100 scale where 0 is no effect and 100 is complete control, approx. 10 d, read-out: Ryegrass, Italian plant response rating): 30%
pest or weed control at 500 g/ha ([6]; preemergence, 0 to 100 scale where 0 is no effect and 100 is complete control, read-out: Ryegrass, Italian plant response rating): 50%
pest or weed control at 125 g/ha ([7]; postemergence, visual injury on 0 to 100 scale (0 no effect, 100 complete control), approx. 10 d, read-out: Kochia plant response rating): 60%
pest or weed control at 500 g/ha ([7]; postemergence, 0 to 100 scale, 0 is no effect, 100 is complete control, read-out: Kochia plant response rating): 60%
pest or weed control at 125 g/ha ([8]; postemergence, visual injury on 0 to 100 scale (0 no effect, 100 complete control), approx. 10 d, read-out: Barnyardgrass plant response rating): 70%
pest or weed control at 500 g/ha ([8]; postemergence, 0 to 100 scale, 0 is no effect, 100 is complete control, read-out: Barnyardgrass plant response rating): 90%
pest or weed control at 125 g/ha ([9]; postemergence, visual injury on 0 to 100 scale (0 no effect, 100 complete control), approx. 10 d, read-out: Blackgrass plant response rating): 70%
pest or weed control at 500 g/ha ([9]; postemergence, 0 to 100 scale, 0 is no effect, 100 is complete control, read-out: Blackgrass plant response rating): 90%
pest or weed control at 125 g/ha ([10]; postemergence, visual injury vs untreated controls after approx. 10 d, 0 = no effect, 100 = complete control, read-out: Pigweed plant response rating (0 to 100 scale)): 60%
pest or weed control at 500 g/ha ([10]; postemergence, 0 to 100 scale, 0 is no effect, 100 is complete control, read-out: Pigweed plant response rating): 70%
pest or weed control at 250 g/ha ([11]; Echinochloa crus-galli, read-out: Barnyardgrass plant response rating): 30%
pest or weed control at 250 g/ha ([12]; Heteranthera limosa, read-out: Ducksalad plant response rating): 100%
pest or weed control at 250 g/ha ([13]; Oryza sativa, read-out: Rice plant response rating): 30%
pest or weed control at 250 g/ha ([14]; Cyperus difformis, read-out: Sedge, Umbrella plant response rating): 0%

CN1C[C@H](c2ccc(C(F)(F)F)cc2)[C@@H](C(=O)Nc2ccccc2F)C1=O [Compound 622, (3S,4S)—N-(2-fluorophenyl)-1-methyl-2-oxo-4-[4-(trifluoromethyl)phenyl]-3-pyrrolidinecarboxamide]
pest or weed control at 125 g/ha ([1]; Preemergence, visual injury after approximately 10 d, 0 to 100 scale where 0 is no effect and 100 is complete control, read-out: Plant response rating, Kochia): 80%
pest or weed control at 500 g/ha ([1]; preemergence, 0 to 100 scale, 0 = no effect, 100 = complete control, read-out: Plant response rating, Kochia): 80%
pest or weed control at 125 g/ha ([2]; Preemergence, visual injury after approximately 10 d, 0 to 100 scale where 0 is no effect and 100 is complete control, read-out: Plant response rating, Barnyardgrass): 90%
pest or weed control at 500 g/ha ([2]; preemergence, 0 to 100 scale, 0 = no effect, 100 = complete control, read-out: Plant response rating, Barnyardgrass): 90%
pest or weed control at 125 g/ha ([3]; Preemergence, visual injury after approximately 10 d, 0 to 100 scale where 0 is no effect and 100 is complete control, read-out: Plant response rating, Foxtail, Giant): 90%
pest or weed control at 500 g/ha ([3]; preemergence, 0 to 100 scale, 0 = no effect, 100 = complete control, read-out: Plant response rating, Foxtail, Giant): 90%
pest or weed control at 125 g/ha ([4]; Preemergence, visual injury after approximately 10 d, 0 to 100 scale where 0 is no effect and 100 is complete control, read-out: Plant response rating, Pigweed): 80%
pest or weed control at 500 g/ha ([4]; preemergence, 0 to 100 scale, 0 = no effect, 100 = complete control, read-out: Plant response rating, Pigweed): 80%
pest or weed control at 125 g/ha ([5]; Preemergence, visual injury after approximately 10 d, 0 to 100 scale where 0 is no effect and 100 is complete control, read-out: Plant response rating, Ragweed): 60%
pest or weed control at 500 g/ha ([5]; preemergence, 0 to 100 scale, 0 = no effect, 100 = complete control, read-out: Plant response rating, Ragweed): 60%
pest or weed control at 125 g/ha ([6]; Preemergence, visual injury after approximately 10 d, 0 to 100 scale where 0 is no effect and 100 is complete control, read-out: Plant response rating, Ryegrass, Italian): 40%
pest or weed control at 500 g/ha ([6]; preemergence, 0 to 100 scale, 0 = no effect, 100 = complete control, read-out: Plant response rating, Ryegrass, Italian): 40%
pest or weed control at 125 g/ha ([7]; postemergence, visual rating after approx. 10 d, 0 to 100 scale (0 no effect, 100 complete control), read-out: Plant response rating, Kochia): 40%
pest or weed control at 500 g/ha ([7]; Postemergence, 0 to 100 scale where 0 is no effect and 100 is complete control, read-out: Plant response rating, Kochia): 60%
pest or weed control at 125 g/ha ([8]; postemergence, visual rating after approx. 10 d, 0 to 100 scale (0 no effect, 100 complete control), read-out: Plant response rating, Barnyardgrass): 90%
pest or weed control at 500 g/ha ([8]; Postemergence, 0 to 100 scale where 0 is no effect and 100 is complete control, read-out: Plant response rating, Barnyardgrass): 90%
pest or weed control at 125 g/ha ([9]; postemergence, visual rating after approx. 10 d, 0 to 100 scale (0 no effect, 100 complete control), read-out: Plant response rating, Blackgrass): 30%
pest or weed control at 500 g/ha ([9]; Postemergence, 0 to 100 scale where 0 is no effect and 100 is complete control, read-out: Plant response rating, Blackgrass): 60%
pest or weed control at 125 g/ha ([10]; postemergence, visual rating after approx. 10 d, 0 to 100 scale (0 no effect, 100 complete control), read-out: Plant response rating, Pigweed): 40%
pest or weed control at 500 g/ha ([10]; Postemergence, 0 to 100 scale where 0 is no effect and 100 is complete control, read-out: Plant response rating, Pigweed): 50%
Plant response rating, Barnyardgrass ([11]; 13 to 15 d): 70
Plant response rating, Ducksalad ([12]; 13 to 15 d): 100
Plant response rating, Rice ([13]; 13 to 15 d): 0
Plant response rating, Sedge, Umbrella ([14]; 13 to 15 d): 0
